Data set [1] has as its target Nav1.8 ion channel stably expressed on HEK293 cells (Homo sapiens (Human), UniProt Q9Y5Y9). Nature of the data set: Inhibitory activity against Nav1.8, manual patch clamp. Format: cell-based. To be noted: resting protocol (-80 mV to 10 mV), 1 μM TTX, read-out: IC50 for the inhibition of Nav1.8 channel activity. The source says: The objective of the experiment was to investigate the effects of the compounds on the Nav1.8 ion channel in ex vivo experiments. The Nav1.8 ion channel is stably expressed on HEK293 cells. After the Nav1.8 current stabilized, the effects of the compounds on the Nav1.8 ion channel were obtained by comparing the magnitudes of the Nav1.8 currents before and after the compounds were applied.
• 1) A patch clamp amplifier: patch clamp PC-505B (WARNER instruments)/MultiClamp 700A (Axon instrument) • 2) A digital-to-analog converter: Digidata 1440A (Axon CNS)/Digidata 1550A (Axon instruments) • 3) A micromanipulator: MP-225 (SUTTER instrument) • 4) An inverted microscope: TL4 (Olympus) • 5) Glass micropipette puller: PC-10 (NARISHIGE) • 6) Microelectrode glass capillaries: B12024F (Wuhan VitalSense Scientific Instruments Co., Ltd.) • 7) Dimethyl sulfoxide (DMSO) D2650 (Sigma-Aldrich) • 8) TTX AF3014 (Affix Scientific)
The compounds for preparing the intracellular and extracellular fluids were purchased from Sigma (St. Louis, MO) except for the NaOH and KOH for the acid-base titrations. The extracellular fluid (mM) was: NaCl, 137; KCl, 4; CaCl2, 1.8; MgCl2, 1; HEPES, 10; glucose, 10; pH 7.4 (NaOH titration). The intracellular fluid (mM) was: aspartic acid, 140; MgCl2, 2; EGTA, 11; HEPES, 10; pH 7.2 (CsOH titration). All test and control compound solutions contained 1 μM TTX.
The test compounds were stored at a concentration of 9 mM in dimethyl sulfoxide (DMSO). On the testing day, the compounds were further dissolved in the extracellular fluid to prepare the required concentrations.
1) After the compounds were prepared into solutions with specified concentrations, the compound solutions were sequentially added to channels in ascending order according to their concentrations, and each channel was labeled.
2) A cell was transferred to the perfusion chamber. Positive pressure was applied inside the electrode, and the electrode tip was brought into contact with the cell. The three-way valve of the suction device was switched to the state where all three ways were open, and negative pressure was then applied to the electrode, allowing a high-resistance seal to form between the electrode and the cell. The application of negative pressure was continued to rupture the cell membrane, leading to the formation of a current pathway.
3) After the cell membrane rupture current stabilized, perfusion was performed with different concentrations in sequence. If the current remained stable for at least one minute, perfusion was performed with the next concentration.
4) The perfusion chamber was cleaned. The perfusion chamber was rinsed with the compound solutions in descending order according to their concentrations, with each concentration applied for 20 s. Finally, the perfusion chamber was rinsed with the extracellular fluid for 1 min.
The cell was clamped at −80 mV and then depolarized to 10 mV using a square wave lasting for 10 ms to obtain a Nav1.8 current. This procedure was repeated once every 5 seconds. The maximum current induced by the square wave was detected. After the current stabilized, perfusion was performed with the test compounds. After the reaction stabilized, the strength of the blocking was calculated.
The data were stored on a computer system and analyzed. Data acquisition and analysis were performed using pCLAMP 10 (Molecular Devices, Union City, CA), and the results were reviewed by a manager. “Current stabilized” means that the changes in current over time were within a limited range. The magnitude of the current after stabilization was used to calculate the effect of the compound at this […].
The inhibitory activity of the compounds of the present disclosure against Nav1.8 was determined through the above assay.

Data set [2] can be described thus: Pharmacokinetic evaluation in CD-1 mice (i.g.). Format: in vivo. Conditions: male, mouse, plasma, po, 100 mg/kg. On the procedure:
CD-1 mice were used as test animals. After intragastric (i.g.) administration of the compound of the present disclosure to CD-1 mice, the plasma concentrations of the compound at different time points were determined by the LC/MS/MS method. The pharmacokinetic behavior of the compound of the present disclosure in CD-1 mice was studied, and its pharmacokinetic profile was evaluated.
Nine male CD-1 mice (3 mice per time point), provided by Vital River Laboratory Animal Technology Co., Ltd. (license: SCXK (Zhejiang) 2019-0001). The mice were intragastrically dosed.
A certain amount of the test compound was weighed out, and 25% PEG400+75% (10% TPGS+1% HPMC K100LV) was added to prepare a 10 mg/mL yellowish suspension.
The administration dose was 100 mg/kg, and the administration volume was 10 mL/kg.
The intragastric administration groups: 0.1-mL blood samples were collected from the orbit before administration and 0.25, 0.5, 1.0, 2.0, 4.0, 6.0, 8.0, 11.0, and 24.0 h after administration, placed into EDTA-K2 anticoagulation test tubes, and centrifuged at 10,000 rpm for 1 min (4° C.), and the plasma was separated within 1 h and stored at −80° C. before analysis. The procedures from the blood collection to the centrifugation were performed under ice-bath conditions.
Determination of the plasma concentration of the test compound in CD-1 mice after the compound was administered at different concentrations: A 20-μL sample of the CD-1 mouse plasma collected at each time point after administration was taken, and 200 μL of acetonitrile containing an internal standard (dexamethasone, 100 ng/mL) was added to each sample to precipitate protein. The mixture was vortexed for 5 min and centrifuged at 4000 rpm for 15 min. 40 μL of the supernatant was taken, and 120 μL of water was added. The mixture was vortexed for 5 min, and 0.5 μL of the mixture was taken for LC/MS/MS analysis.

Data set [3] in a line: Pharmacokinetic evaluation in SD rats (i.g.). Format: in vivo. To be noted: male, Sprague-Dawley (SD), rat, plasma, po, 50 mg/kg. As to the method: SD rats were used as test animals. After intragastric (i.g.) administration of the example compounds to SD rats, the plasma concentrations of the compounds at different time points were determined by the LC/MS/MS method. The pharmacokinetic behaviors of the compounds of the present disclosure in SD rats were studied, and their pharmacokinetic profiles were evaluated.
Compounds 16 and 32: Four male SD rats, provided by Vital River Laboratory Animal Technology Co., Ltd. The animals were fasted overnight and then intragastrically dosed.
Compound 38: Two male SD rats, provided by Zhejiang Vital River Laboratory Animal Technology Co., Ltd. The animals were fasted overnight and then intragastrically dosed.
Compounds 16 and 32: Certain amounts of the test compounds were weighed out, and 5% DMSO+5% tween 80+90% normal saline was added to prepare 0.2 mg/mL colorless clear solutions.
Compound 38: A certain amount of the test compound was weighed out, and 25% PEG400+75% (10% TPGS+1% HPMC K100LV) was added to prepare a 5 mg/mL colorless clear solution.
Compounds 16 and 32: The administration dose was 2 mg/kg, and the administration volume was 10.0 mL/kg.
Compound 38: The administration dose was 50 mg/kg, and the administration volume was 10.0 mL/kg.
0.2-mL blood samples were collected from the orbit before administration and 0.25, 0.5, 1.0, 2.0, 4.0, 6.0, 8.0, 11.0, and 24.0 h after administration, placed into EDTA-K2 anticoagulation test tubes, and centrifuged at 10,000 rpm for 1 min (4° C.), and the plasma was separated within 1 h and stored with dry ice before analysis. The procedures from the blood collection to the centrifugation were performed under ice-bath conditions. Access to food was given 2 h after administration.
Compounds 16 and 32: Determination of the plasma concentrations of the test compounds in SD rats after the compounds were administered at different concentrations: A 25-μL sample of the SD rat plasma collected at each time point after administration was taken, and 200 μL of acetonitrile containing an internal standard (verapamil, 100 ng/mL) was added. The mixture was vortexed and centrifuged at 3700 rpm for 10 min. 0.1 μL of the supernatant was taken for LC/MS/MS analysis.
Compound 38: Determination of the plasma concentration of the test compound in SD rats after the compound was administered at different concentrations: A 25-μL sample of the SD rat plasma collected at each time point after administration was taken, and 200 μL of acetonitrile containing an internal standard (dexamethasone, 100 ng/mL) was added. The mixture was vortexed and centrifuged at 4000 rpm for 15 min. 1 μL of the supernatant was taken for LC/MS/MS analysis.

Data set [4] can be described thus: Pharmacokinetic evaluation in dogs (i.g.). Format: in vivo. Conditions: both sexes, dog, plasma, po, 2 mg/kg. On the procedure:
Dogs were used as test animals. After intragastric (i.g.) administration of the example compound to dogs, the plasma concentrations of the compound at different time points were determined by the LC/MS/MS method. The pharmacokinetic behavior of the compound of the present disclosure in dogs was studied, and its pharmacokinetic profile was evaluated.
The compound of Example 43.
Four dogs, with an equal number of males and females, provided by Weifang Shengnuo Laboratory Animal Breeding Co., Ltd (license: SCXK (Beijing) 2020-0009) and Beijing Institute of Xieerxin Biology Resource Co., Ltd (license: SCXK (Shandong) 20230001). The animals were fasted overnight and then intragastrically dosed.
A certain amount of the example compound was weighed out, and 5% DMSO+20% PG+20% PEG400+55% normal saline was added to prepare a […] colorless clear solution.
The administration dose was 2 mg/kg, and the administration volume was 10.0 mL/kg.
0.5-mL blood samples were collected from a forelimb vein before administration and 0.25, 0.5, 1.0, 2.0, 4.0, 6.0, 8.0, 11.0, 24.0, 48.0, and 72 h after administration, placed into EDTA-K2 anticoagulation test tubes, and centrifuged at 10,000 rpm for 1 min (4° C.), and the plasma was separated within 1 h and stored with dry ice before analysis. The procedures from the blood collection to the centrifugation were performed under ice-bath conditions. Access to food was given 2 h after administration.
Determination of the plasma concentration of the test compound in dogs after the compound was administered at different concentrations: A 50-μL sample of the dog plasma collected at each time point after administration was taken, and 250 μL of acetonitrile containing an internal standard (labetalol, 1 μg/mL) was added. The mixture was vortexed and centrifuged at 3700 rpm for 10 min. 0.5 μL of the supernatant was taken for LC/MS/MS analysis.

[5] abbreviates: read-out: Area under curve AUC0-t.
Where [6] appears, read: read-out: Half-life T½ (converted).
The mark [7] stands for this setting: read-out: Plasma concentration Cmax.

Take `COc1c([C@H]2[C@H](C(=O)Nc3ccnc(C4(N)CC4)c3)O[C@@](C)(C(F)(F)F)[C@H]2C)ccc(F)c1F` [Example 38, (2R,3S,4S,5R)—N-(2-(1-Aminocyclopropyl)pyridin-4-yl)-3-(3,4-difluoro-2-methoxyphenyl)-4,5-dimethyl-5-(trifluoromethyl)tetrahydrofuran-2-carboxamide]: the IC50 in data set [1] is 2.2 nM. The AUC(0-t) is 76700 ng·h/mL in data set [2] (setting [5]) and 18400 ng·h/mL in data set [3] (setting [5]). For the same compound, the CL/F amounted to 20.3 mL/min/kg in data set [2] (read-out: Clearance rate CL/F) and 42 mL/min/kg in data set [3] (read-out: Clearance rate CL/F). Also, the half-life was 5.8 h in data set [2] (setting [6]) and 5.84 h in data set [3] (setting [6]). Moreover, the values for the Cmax in data set [2] (setting [7]) and in data set [3] (setting [7]) were 6280 ng/mL and 1440 ng/mL, respectively.
With `COc1c([C@H]2[C@H](C(=O)Nc3cc[n+]([O-])c(/C(N)=N/O)c3)O[C@@](C)(C(F)(F)F)[C@H]2C)ccc(F)c1F` [Example 43, 4-((2R,3S,4S,5R)-3-(3,4-Difluoro-2-methoxyphenyl)-4,5-dimethyl-5-(trifluoromethyl)tetrahydrofuran-2-carboxamido)-2-((Z)—N′-hydroxycarbamimidoyl)pyridine 1-oxide], the IC50 in data set [1] came to 0.3 nM. Besides, the AUC(0-t) in data set [4] (setting [5]) was found to be 250000 ng·h/mL. Also, the CL/F in data set [4] (read-out: Clearance rate CL/F) was 0.128 mL/min/kg. The half-life in data set [4] (setting [6]) was 34.5 h. In addition, the Cmax in data set [4] (setting [7]) is 5680 ng/mL.

Values taken from US20260055088A1, “HETEROCYCLIC COMPOUND, METHOD FOR PREPARING SAME, AND PHARMACEUTICAL USE THEREOF” (Jiangsu Hengrui Pharmaceuticals Co., Ltd., priority 2022, published 2026).
